# What was measured:
# Botrytis cinerea = assay: In vivo preventive test on Botrytis cinerea (grey mould); conditions: 500 ppm of active ingredient, preventive spray on gherkin or cabbage, evaluated 4 to 5 days after inoculation, 100% = no disease, read-out: efficacy
# Protocol: (§1) The active ingredients were made soluble and homogenized in a mixture of Dimethyl sulfoxide/Acetone/Tween® 80 and then diluted in water to the desired concentration.
# The young plants of gherkin or cabbage were treated by spraying the active ingredient prepared as described above. Control plants were treated only with an aqueous solution of Acetone/Dimethyl sulfoxide/Tween® 80.
# After 24 hours, the plants were contaminated by spraying the leaves with an aqueous suspension of Botrytis cinerea spores. The contaminated gherkin plants were incubated for 4 to 5 days at 17° C. and at 90% relative humidity. The contaminated cabbage plants were incubated for 4 to 5 days at 20° C. and at 100% relative humidity.
# The test was evaluated 4 to 5 days after the inoculation. 0% means an efficacy which corresponds to that of the control plants while an efficacy of 100% means that no disease was observed.
# [1] = tested on: Colletotrichum lindemuthianum; assay: Colletotrichum lindemuthianum in vitro cell test; assay type: cell-based; conditions: 144 h, 20 ppm of active ingredient, liquid culture, 6 days incubation, absorbance, read-out: efficacy (inhibition of fungal growth)
# Protocol: (§2) [table] Fungicides were solubilized in DMSO and the solution used to prepare the required range of concentrations. The final concentration of DMSO used in the assay was ≤1%. A spore suspension of C. lindemuthianum was prepared and diluted to the desired spore density. Fungicides were evaluated for their ability to inhibit spores germination and mycelium growth in liquid culture assay. The compounds were added in the desired concentration to the culture medium with spores. After 6 days incubation, fungi-toxicity of compounds was determined by spectrometric measurement of mycelium growth. Inhibition of fungal growth was determined by comparing the absorbance values in wells containing the fungicides with the absorbance in control wells without fungicides.
# Alternaria alternata = Alternaria alternata in vitro cell test; assay type: cell-based; conditions: 120 h, 20 ppm of active ingredient, liquid culture, 5 days incubation, absorbance, read-out: efficacy (inhibition of fungal growth)
# Protocol: as §2, with “was <1%.” for “was ≤1%.”, “of A. alternata” for “of C. lindemuthianum”, “inhibit spore” for “inhibit spores”, “After 5” for “After 6”
# Alternaria brassicae = assay: In vivo preventive test on Alternaria brassicae (leaf spot on radish or cabbage); conditions: 144 h, 500 ppm of active ingredient, preventive spray on radish or cabbage, evaluated 6 days after inoculation, 100% = no disease, read-out: efficacy
# Protocol: as §1
# The young plants of radish or cabbage were treated by spraying the active ingredient prepared as described above. Control plants were treated only with an aqueous solution of Acetone/Dimethyl sulfoxide/Tween® 80.
# After 24 hours, the plants were contaminated by spraying the leaves with an aqueous suspension of Alternaria brassicae spores. The contaminated radish or cabbage plants were incubated for 6 days at 20° C. and at 100% relative humidity.
# The test was evaluated 6 days after the inoculation. 0% means an efficacy which corresponds to that of the control plants while an efficacy of 100% means that no disease was observed.
# Sphaerotheca fuliginea = assay: In vivo preventive test on Sphaerotheca fuliginea (powdery mildew on cucurbits); conditions: Podosphaera fuliginea, 192 h; 500 ppm of active ingredient; preventive spray on gherkin; evaluated 8 days after inoculation; 100% = no disease; read-out: efficacy
# Protocol: as §1
# The young plants of gherkin were treated by spraying the active ingredient prepared as described above. Control plants were treated only with an aqueous solution of Acetone/Dimethyl sulfoxide/Tween® 80.
# After 24 hours, the plants were contaminated by spraying the leaves with an aqueous suspension of Sphaerotheca fuliginea spores. The contaminated gherkin plants were incubated for 8 days at 20° C. and at 70-80% relative humidity.
# The test was evaluated 8 days after the inoculation. 0% means an efficacy which corresponds to that of the control plants while an efficacy of 100% means that no disease was observed.
# Pyrenophora teres = assay: In vivo preventive test on Pyrenophora teres (net blotch on barley); conditions: 240 h, 500 ppm of active ingredient, preventive spray on barley, evaluated 10 days after inoculation, 100% = no disease, read-out: efficacy
# Protocol: as §1
# The young plants of barley were treated by spraying the active ingredient prepared as described above. Control plants were treated only with an aqueous solution of Acetone/Dimethyl sulfoxide/Tween® 80.
# After 24 hours, the plants were contaminated by spraying the leaves with an aqueous suspension of Pyrenophora teres spores. The contaminated barley plants were incubated for 48 hours at 20° C. and at 100% relative humidity and then for 8 days at 20° C. and at 70-80% relative humidity.
# The test was evaluated 10 days after the inoculation. 0% means an efficacy which corresponds to that of the control plants while an efficacy of 100% means that no disease was observed.
# [2] = Measurement of Log P values by HPLC on reversed phase columns (EEC directive 79/831 Annex V.A8); assay type: physicochemical
# Protocol: Measurement of Log P values as provided herein was performed according to EEC directive 79/831 Annex V.A8 by HPLC (High Performance Liquid Chromatography) on reversed phase columns with the following methods: • ^[a]
# If more than one Log P value is available within the same method, all the values are given and separated by “+”.
# Lambda-max-values were determined using UV-spectra from 200 nm to 400 nm and the peak values of the chromatographic signals
Structure (SMILES),pest or weed control at 500 ppm (Botrytis cinerea) [%],inhibition at 20 ppm [1] [%],inhibition at 20 ppm (Alternaria alternata) [%],pest or weed control at 500 ppm (Alternaria brassicae) [%],pest or weed control at 500 ppm (Sphaerotheca fuliginea) [%],pest or weed control at 500 ppm (Pyrenophora teres) [%],other results
"CC(=O)c1cc(C(=O)NCC(F)c2ccc(Br)cc2Cl)c(Oc2cccc(C(F)(F)F)c2)nn1 (racemic) [I-605, 6-acetyl-N-[rac-2-(4-bromo-2-chloro-phenyl)-2-fluoro-ethyl]-3-[3-(trifluoromethyl)phenoxy]pyridazine-4-carboxamide]",70 to 79,90 to 100,90 to 100,90 to 100,90 to 100,70 to 79,
O=C(O)c1ccnnc1Oc1cccc(C(F)(F)F)c1 [1-129],,,,,,,"LogP ([2]; method [a]: LC-UV, acidic range, 0.1% formic acid in water / acetonitrile, Table 3, formula (1)): 1.47^[a]"
Cc1ccc(C(F)(F)CNC(=O)c2cc(C)nnc2Cl)c(C)c1 [3-06],,,,,,,"LogP ([2]; method [a]: LC-UV, acidic range, 0.1% formic acid in water / acetonitrile, Table 7, formula (3)): 3.20^[a]"
"Cc1ccc(C(F)(F)CNC(=O)c2cc(Cl)nnc2Oc2cccc(C(F)(F)F)c2)c(C)c1 [I-014, 6-chloro-N-[2-(2,4-dimethylphenyl)-2,2-difluoro-ethyl]-3-[3-(trifluoromethyl)phenoxy]pyridazine-4-carboxamide]",90 to 100,90 to 100,90 to 100,90 to 100,90 to 100,70 to 79,
"Cc1ccc(C(F)(F)CNC(=O)c2c(Oc3cccc(C(F)(F)F)c3)nnc(Cl)c2I)c(C)c1 [I-020, 6-chloro-N-[2-(2,4-dimethylphenyl)-2,2-difluoro-ethyl]-5-iodo-3-[3-(trifluoromethyl)phenoxy]pyridazine-4-carboxamide]",90 to 100,90 to 100,90 to 100,90 to 100,90 to 100,80 to 89,
"Cc1ccc(CCNC(=S)c2cc(C)nnc2Oc2cccc(C(F)(F)F)c2)c(C)c1 [I-094, N-[2-(2,4-dimethylphenyl)ethyl]-6-methyl-3-[3-(trifluoromethyl)phenoxy]pyridazine-4-carbothioamide]",90 to 100,90 to 100,80 to 89,90 to 100,90 to 100,80 to 89,
"Cc1cc(C2CC2)ccc1C(F)(F)CNC(=O)c1cc(Cl)nnc1Oc1cccc(C(F)(F)F)c1 [I-240, 6-chloro-N-[2-(4-cyclopropyl-2-methyl-phenyl)-2,2-difluoro-ethyl]-3-[3-(trifluoromethyl)phenoxy]pyridazine-4-carboxamide]",90 to 100,90 to 100,90 to 100,90 to 100,90 to 100,70 to 79,
"CCc1c(Cl)nnc(Oc2cccc(C(F)(F)F)c2)c1C(=O)NCC(F)(F)c1ccc(Cl)cc1 [I-254, 6-chloro-N-[2-(4-chlorophenyl)-2,2-difluoro-ethyl]-5-ethyl-3-[3-(trifluoromethyl)phenoxy]pyridazine-4-carboxamide]",90 to 100,90 to 100,90 to 100,90 to 100,90 to 100,,
O=C(NCC(F)(F)c1ccc(Br)cc1Cl)c1cc(C2CC2)nnc1Oc1cccc(C(F)(F)F)c1 [I-312],,,,,,,LogP ([2]; method [a]): 4.79; LogP ([2]; method [b]): 4.68
"COC(=O)N(CC(F)(F)c1ccc(C)cc1C)C(=O)c1cc(Cl)nnc1Oc1cccc(C(F)(F)F)c1 [I-335, methyl N-[6-chloro-3-[3-(trifluoromethyl)phenoxy]pyridazine-4-carbonyl]-N-[2-(2,4-dimethylphenyl)-2,2-difluoro-ethyl]carbamate]",90 to 100,80 to 89,70 to 79,80 to 89,80 to 89,,
"Cc1ccc(C(F)(F)CNC(=O)c2c(Oc3cccc(C(F)(F)F)c3)nnc(Cl)c2NC2COC2)c(C)c1 [I-408, 6-chloro-N-[2-(2,4-dimethylphenyl)-2,2-difluoro-ethyl]-5-(oxetan-3-ylamino)-3-[3-(trifluoromethyl)phenoxy]pyridazine-4-carboxamide]",90 to 100,90 to 100,90 to 100,90 to 100,90 to 100,70 to 79,
"Cc1ccc(C(F)(F)CNC(=O)c2cc(I)nnc2Oc2cccc(C(F)(F)F)c2)c(C)c1 [I-461, N-[2-(2,4-dimethylphenyl)-2,2-difluoro-ethyl]-6-iodo-3-[3-(trifluoromethyl)phenoxy]pyridazine-4-carboxamide]",90 to 100,90 to 100,90 to 100,90 to 100,90 to 100,80 to 89,
Cc1cc(C(=O)NCCc2ccc(C(F)F)cn2)c(Oc2cccc(C(F)(F)F)c2)nn1 [I-525],,,,,,,LogP ([2]; LogP method [a]): 2.57; LogP ([2]; LogP method [b]): 2.71
"O=C(NCC(F)(F)c1ccc(Br)cc1Cl)c1cc(Cl)nnc1Oc1cccc(F)c1F [I-530, N-[2-(4-bromo-2-chloro-phenyl)-2,2-difluoro-ethyl]-6-chloro-3-(2,3-difluorophenoxy)pyridazine-4-carboxamide]",90 to 100,90 to 100,90 to 100,90 to 100,90 to 100,70 to 79,
"Cc1ccc(C(F)(F)CNC(=O)c2cc(C)nnc2Oc2cccc(C3CCC3)c2)c(C)c1 [I-564, 3-(3-cyclobutylphenoxy)-N-[2-(2,4-dimethylphenyl)-2,2-difluoro-ethyl]-6-methyl-pyridazine-4-carboxamide]",90 to 100,70 to 79,90 to 100,80 to 89,80 to 89,,
"CSc1cc(C(=O)NCC(F)(F)c2ccc(C)cc2C)c(Oc2cccc(C(F)(F)F)c2)nn1 [I-767, N-[2-(2,4-dimethylphenyl)-2,2-difluoro-ethyl]-6-methylsulfanyl-3-[3-(trifluoromethyl)phenoxy]pyridazine-4-carboxamide]",90 to 100,90 to 100,90 to 100,90 to 100,90 to 100,80 to 89,
Cc1ccc(C(F)(F)CNC(=O)c2c(Oc3cccc(C(F)(F)F)c3)nnc(Cl)c2NC2CC2C2CC2)c(C)c1 (centres unmarked) [I-812],,,,,,,LogP ([2]; method [a]): 4.87^[a]
Cc1ccc(C(F)(F)CNC(=O)c2c(Oc3cccc(C4CC4)c3F)nnc(Cl)c2C)c(Br)c1 [I-840],,,,,,,"LogP ([2]; method marked [a], HPLC on reversed phase columns): 4.57^[a]"
